According to ChEMBL document CHEMBL1159270, “Bruceosides D, E, and F, three new cytotoxic quassinoid glucosides from Brucea javanica” (1995):

How the values were obtained:
Format in all cases: functional
CCRF-CEM = assay: Growth inhibition of human CCRF-CEM cells
HL-60(TB) = assay: Growth inhibition of human HL-60(TB) cells
K562 = assay: Growth inhibition of human K562 cells
MOLT-4 = assay: Growth inhibition of human MOLT4 cells
EKVX = assay: Growth inhibition of human EKVX cells
HOP-62 = assay: Growth inhibition of human HOP62 cells
HOP-92 = assay: Growth inhibition of human HOP92 cells
NCI-H226 = assay: Growth inhibition of human NCI-H226 cells
NCI-H23 = assay: Growth inhibition of human NCI-H23 cells
NCI-H322M = assay: Growth inhibition of human NCI-H322M cells
NCI-H460 = assay: Growth inhibition of human NCI-H460 cells
NCI-H522 = assay: Growth inhibition of human NCI-H522 cells
COLO 205 = assay: Growth inhibition of human COLO205 cells
HCC 2998 = assay: Growth inhibition of human HCC2998 cells
HCT-116 = assay: Growth inhibition of human HCT116 cells
HCT-15 = assay: Growth inhibition of human HCT15 cells
HT-29 = assay: Growth inhibition of human HT-29 cells
KM12 = assay: Growth inhibition of human KM12 cells
SW-620 = assay: Growth inhibition of human SW620 cells
SF-268 = assay: Growth inhibition of human SF268 cells
SF-539 = assay: Growth inhibition of human SF539 cells
SNB-19 = assay: Growth inhibition of human SNB19 cells
SNB-75 = assay: Growth inhibition of human SNB75 cells
U-251 = assay: Growth inhibition of human U251 cells
LOX IMVI = assay: Growth inhibition of human LOXIMVI cells
Malme-3M = assay: Growth inhibition of human MALME-3M cells
M14 = assay: Growth inhibition of human M14 cells
SK-MEL-2 = assay: Growth inhibition of human SK-MEL-2 cells
SK-MEL-28 = assay: Growth inhibition of human SK-MEL-28 cells
SK-MEL-5 = assay: Growth inhibition of human SK-MEL-5 cells
UACC-257 = assay: Growth inhibition of human UACC257 cells
UACC-62 = assay: Growth inhibition of human UACC62 cells
IGROV-1 = assay: Growth inhibition of human IGROV1 cells
OVCAR-3 = assay: Growth inhibition of human OVCAR-3 cells
OVCAR-4 = assay: Growth inhibition of human OVCAR4 cells
OVCAR-5 = assay: Growth inhibition of human OVCAR5 cells
OVCAR-8 = assay: Growth inhibition of human OVCAR8 cells
SK-OV-3 = assay: Growth inhibition of human SKOV3 cells
786-0 = assay: Growth inhibition of human 786-0 cells
A498 = assay: Growth inhibition of human A498 cells
ACHN = assay: Growth inhibition of human ACHN cells
CAKI-1 = assay: Growth inhibition of human Caki1 cells
RXF 393 = assay: Growth inhibition of human RXF393 cells
SN12C = assay: Growth inhibition of human SN12C cells
TK-10 = assay: Growth inhibition of human TK10 cells
UO-31 = assay: Growth inhibition of human UO31 cells
SR = assay: Growth inhibition of human SR cells
A549 = assay: Growth inhibition of human A549 cells
PC-3 = assay: Growth inhibition of human PC3 cells
DU-145 = assay: Growth inhibition of human DU145 cells
MCF7 = assay: Growth inhibition of human MCF7 cells
[1] = Growth inhibition of human MCF7/ADR cells; settings: NCI/ADR-RES
MDA-MB-231 = assay: Growth inhibition of human MDA-MB-231 cells
[2] = Growth inhibition of human Hs 578T cells
MDA-MB-435 = assay: Growth inhibition of human MDA-MB-435 cells
MDA-N = assay: Growth inhibition of human MDA-N cells
BT-549 = assay: Growth inhibition of human BT549 cells
T47D = assay: Growth inhibition of human T47D cells

## CC(C)CC(=O)O[C@H]1C(=O)O[C@@H]2C[C@H]3[C@H](C)C(=O)C(O[C@@H]4O[C@H](CO)[C@@H](O)[C@H](O)[C@H]4O)=C[C@]3(C)[C@H]3[C@@H](O)[C@H](O)[C@]4(C(=O)O)OC[C@]32[C@@H]14 [BRUCEOSIDE E]
CCRF-CEM
  GI50: 24.5 µM
HL-60(TB)
  GI50: 41.7 µM
K562
  GI50: 24 µM
MOLT-4
  GI50: 19.1 µM
EKVX
  GI50: > 100 µM
HOP-62
  GI50: 44.7 µM
HOP-92
  GI50: 37.2 µM
NCI-H226
  GI50: 29.5 µM
NCI-H23
  GI50: > 100 µM
NCI-H322M
  GI50: > 100 µM
NCI-H460
  GI50: 27.5 µM
NCI-H522
  GI50: 2.19 µM
COLO 205
  GI50: > 100 µM
HCC 2998
  GI50: 20.4 µM
HCT-116
  GI50: 33.1 µM
HCT-15
  GI50: > 100 µM
HT-29
  GI50: 33.9 µM
KM12
  GI50: > 100 µM
SW-620
  GI50: > 100 µM
SF-268
  GI50: > 100 µM
SF-539
  GI50: 20.4 µM
SNB-19
  GI50: 31.6 µM
SNB-75
  GI50: > 100 µM
U-251
  GI50: 31.6 µM
LOX IMVI
  GI50: 38.9 µM
Malme-3M
  GI50: 22.9 µM
M14
  GI50: > 100 µM
SK-MEL-2
  GI50: > 100 µM
SK-MEL-28
  GI50: 25.1 µM
SK-MEL-5
  GI50: 28.2 µM
UACC-257
  GI50: > 100 µM
UACC-62
  GI50: > 100 µM
IGROV-1
  GI50: 35.5 µM
OVCAR-3
  GI50: 36.3 µM
OVCAR-4
  GI50: 1.91 µM
OVCAR-5
  GI50: > 100 µM
OVCAR-8
  GI50: > 100 µM
SK-OV-3
  GI50: > 100 µM
786-0
  GI50: > 100 µM
A498
  GI50: > 100 µM
ACHN
  GI50: > 100 µM
CAKI-1
  GI50: > 100 µM
RXF 393
  GI50: 10.7 µM
SN12C
  GI50: > 100 µM
TK-10
  GI50: > 100 µM
UO-31
  GI50: > 100 µM
SR
  GI50: 33.9 µM
A549
  GI50: 41.7 µM
PC-3
  GI50: > 100 µM
DU-145
  GI50: > 100 µM
MCF7
  GI50: 28.2 µM
[1]
  GI50: > 100 µM
MDA-MB-231
  GI50: > 100 µM
[2]
  GI50: 39.8 µM
MDA-MB-435
  GI50: > 100 µM
MDA-N
  GI50: > 100 µM
BT-549
  GI50: > 100 µM
T47D
  GI50: > 100 µM
